# From PubChem BioAssay (NCI)
#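 Growth conditions: 96-well plates. Treatment: test compound, 48 hours, 5 concentrations. Analysis: linear interpolation between bracketing concentrations; unreached endpoints set to highest concentration. The concentration for full growth arrest is given as TGI.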
# Columns and labels:
# Test in all cases: NCI tumour cell line growth inhibition, 48 h
# P388/ADR leukemia = tested on: P388/ADR leukemia
# SN12K1 renal = tested on: SN12K1 renal
# P388 leukemia = tested on: P388 leukemia
compound,measurement,setting,value
CN(CO)c1nc(N(C)CO)nc(N(C)CO)n1,TGI,P388/ADR leukemia,69.1 µM
same,TGI,SN12K1 renal,14.1 µM
same,TGI,P388 leukemia,23.8 µM
